Laboratory results as given in patent US20250346593A1, “IMIDAZO(1,2-1)PYRIDINE DERIVATIVES AS RIPK2 INHIBITORS” (Interline Therapeutics, Inc., priority 2022, published 2025).
Read-outs that look alike come from different tables or passages of the source.

Key:
[1] = tested on: NF-κB pathway (SEAP) in THP1-Dual cells; experiment: THP-1 Dual cell SEAP assay (L18-MDP stimulated); assay type: cell-based; conditions: Homo sapiens, THP1-Dual, read-out: NFkB THP1 IC50
[2] = target: GST-RIPK2 fusion protein (human RIPK2 amino acids 1-310) (Homo sapiens (Human), UniProt O43353); experiment: RIPK2 binding competition assay (TR-FRET, Tracer 199)
Chain of GST-RIPK2 fusion protein (human RIPK2 amino acids 1-310) (O43353 1-310): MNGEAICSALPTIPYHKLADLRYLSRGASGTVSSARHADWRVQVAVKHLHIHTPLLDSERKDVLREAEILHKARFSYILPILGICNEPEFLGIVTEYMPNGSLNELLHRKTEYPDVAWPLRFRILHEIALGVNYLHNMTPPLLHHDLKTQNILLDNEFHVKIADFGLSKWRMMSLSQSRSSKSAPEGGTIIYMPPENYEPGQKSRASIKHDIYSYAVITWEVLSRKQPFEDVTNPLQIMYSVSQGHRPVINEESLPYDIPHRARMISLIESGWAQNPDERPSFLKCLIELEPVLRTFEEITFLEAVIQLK

[3] = read-out: RIPK2 IC50, RIPK2 binding competition assay

Compound | IC50 [1] [nM] | IC50 [2] [nM] | IC50 [2, 3] [nM]
COc1cc2ncc(-c3cc(F)c(OCCO)c(Br)c3)n2cc1S(=O)(=O)C(C)(C)C [Example 306, 2-(2-bromo-4-(6-(tert-butylsulfonyl)-7-methoxyimidazo[1,2-a]pyridin-3-yl)-6-fluorophenoxy)ethan-1-ol] | 50 to 250 | 2.5 to 20 | 
COc1cc2ncc(-c3cc(F)c(OC)c(N4CC[C@@H](O)C4=O)c3)n2cc1S(=O)(=O)C(C)(C)C [Example 307, (R)-1-(5-(6-(tert-butylsulfonyl)-7-methoxyimidazo[1,2-a]pyridin-3-yl)-3-fluoro-2-methoxyphenyl)-3-hydroxypyrrolidin-2-one] | > 1000 |  | > 20
COc1cc2ncc(-c3cc(F)c(OC)c(NCCNC(=O)OC(C)(C)C)c3)n2cc1S(=O)(=O)C(C)(C)C [Example 308, tert-butyl (2-((5-(6-(tert-butylsulfonyl)-7-methoxyimidazo[1,2-a]pyridin-3-yl)-3-fluoro-2-methoxyphenyl)amino)ethyl)carbamate] | 50 to 250 | 1 to 2.5 | 
COc1cc2ncc(-c3cc(NCCCO)ncc3C)n2cc1S(=O)(=O)C(C)(C)C [Example 309, 3-({4-[7-Methoxy-6-(2-methylpropane-2-sulfonyl)imidazo[1,2-a]pyridin-3-yl]-5-methylpyridin-2-yl}amino)propan-1-ol] | > 1000 |  | > 20
COc1cc2ncc(-c3cc(NCCCO)ncc3F)n2cc1S(=O)(=O)C(C)(C)C [Example 310, 3-((4-(6-(tert-butylsulfonyl)-7-methoxyimidazo[1,2-a]pyridin-3-yl)-5-fluoropyridin-2-yl)amino)propan-1-ol] | > 1000 |  | > 20
COc1cc2ncc(-c3cc(C)c(OC)c(NCCCO)n3)n2cc1S(=O)(=O)C(C)(C)C [Example 311, 3-((6-(6-(tert-butylsulfonyl)-7-methoxyimidazo[1,2-a]pyridin-3-yl)-3-methoxy-4-methylpyridin-2-yl)amino)propan-1-ol] | 250 to 1000 | 2.5 to 20 | 
COc1cc2ncc(-c3ccc(OC)c(NCCCO)n3)n2cc1S(=O)(=O)C(C)(C)C [Example 312, 3-((6-(6-(tert-butylsulfonyl)-7-methoxyimidazo[1,2-a]pyridin-3-yl)-3-methoxypyridin-2-yl)amino)propan-1-ol] | 250 to 1000 | 2.5 to 20 | 
CCCS(=O)(=O)Nc1nc(-c2cnc3cc(OC)c(S(=O)(=O)C(C)(C)C)cn23)ccc1OC(F)(F)F [Example 313, N-(6-(6-(tert-butylsulfonyl)-7-methoxyimidazo[1,2-a]pyridin-3-yl)-3-(trifluoromethoxy)pyridin-2-yl)propane-1-sulfonamide] | > 1000 |  | > 20
COc1cc2ncc(-c3cc(F)nc(F)c3)n2cc1S(=N)(=O)C(C)(C)C (stereo not drawn) [Example 315, tert-butyl(3-(2,6-difluoropyridin-4-yl)-7-methoxyimidazo[1,2-a]pyridin-6-yl)(imino)-λ^6-sulfanone] | > 1000 |  | > 20
COc1cc2ncc(-c3cc(F)nc(NCC4CCN(C(C)=O)CC4)c3)n2cc1S(=O)(=O)C(C)(C)C [Example 317, 1-(4-(((4-(6-(tert-butylsulfonyl)-7-methoxyimidazo[1,2-a]pyridin-3-yl)-6-fluoropyridin-2-yl)amino)methyl)piperidin-1-yl)ethan-1-one] | < 50 |  | < 1
COc1cc2ncc(-c3cc(F)c(OC)c(NCCCO)c3)n2cc1S(=O)(=O)C(C)(C)C [Example 319, 3-((5-(6-(tert-butylsulfonyl)-7-methoxyimidazo[1,2-a]pyridin-3-yl)-3-fluoro-2-methoxyphenyl)amino)propan-1-ol] | 50 to 250 | 1 to 2.5 | 
COc1cc2ncc(-c3cccc(NCCCO)c3)n2cc1S(=O)(=O)C(C)(C)C [Example 320, 3-((3-(6-(tert-butylsulfonyl)-7-methoxyimidazo[1,2-a]pyridin-3-yl)phenyl)amino)propan-1-ol] | > 1000 |  | > 20
